Reference: ChEMBL document CHEMBL4665681, “On the Promise of Photopharmacology Using Photoswitches: A Medicinal Chemist's Perspective” (J Med Chem, 2020)
Converted amounts (≈) assume the structure as drawn.

Legend:
Histone deacetylase 2 = Histone deacetylase 2 (Homo sapiens, UniProt Q92769); test: Light-dependent inhibition of recombinant full length human HDAC2 expressed in baculovirus infected Sf9 insect cells preincubated for 1 hr in presence of LED light irradiation followed by substrate addition and measured for 30 mins by fluorescence method
Histone deacetylase 2, sequence (Q92769 whole entry): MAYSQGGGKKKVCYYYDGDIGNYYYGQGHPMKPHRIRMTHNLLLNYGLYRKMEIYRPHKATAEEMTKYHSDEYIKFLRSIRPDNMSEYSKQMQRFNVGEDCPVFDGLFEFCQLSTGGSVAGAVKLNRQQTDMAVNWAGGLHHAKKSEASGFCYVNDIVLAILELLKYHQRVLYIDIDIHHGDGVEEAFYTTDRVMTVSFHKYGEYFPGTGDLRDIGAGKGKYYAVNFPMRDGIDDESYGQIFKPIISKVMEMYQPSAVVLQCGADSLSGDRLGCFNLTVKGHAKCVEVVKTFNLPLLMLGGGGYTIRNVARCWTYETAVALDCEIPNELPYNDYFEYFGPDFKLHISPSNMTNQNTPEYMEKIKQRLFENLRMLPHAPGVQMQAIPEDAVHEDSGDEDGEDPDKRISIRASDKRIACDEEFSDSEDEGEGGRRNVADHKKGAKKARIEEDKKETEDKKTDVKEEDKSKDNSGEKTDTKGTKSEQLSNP

[1] = Thermal relaxation half life in PBS buffer; type: physicochemical
Escherichia coli [2] = test: Antibacterial activity against Quinolone-sensitive Escherichia coli CS1562 (tolC6:tn10) using irradiated compound measured every 10 min for 12 hrs by broth dilution method; type: functional; conditions: light or radiation study
[3] = Half life of compound in water at 21x10^-6 M; type: physicochemical; conditions: dose 21 10^-6M
Escherichia coli [4] = test: Antibacterial activity against Quinolone-sensitive Escherichia coli CS1562 (tolC6:tn10) measured every 10 min for 12 hrs by broth dilution method; type: functional
[5] = Half life in Dutch Belted rabbit retina at 30 uM, IVT measured after 24 to 336 hrs by LC-MS/MS analysis; type: ADME, tissue-based, Oryctolagus cuniculus; conditions: topical or ocular, time 24-336 hrs

CN(C)c1ccc(/N=N\c2ccc(C(=O)Nc3cc(-c4cccs4)ccc3O)cc2)cc1 gave an IC50 (Histone deacetylase 2) of less than 100 nM and a t1/2 [1] of 56 microsec.
CCn1cc(C(=O)O)c(=O)c2ccc(/N=N\c3ccc(OC)c(C)c3)cc21 showed an MIC (Escherichia coli [2]) of 16 µg/mL (≈ 43.8 µM), a half-life at 21 µM [3] of 0.0833 days and an MIC (Escherichia coli [4]) of no less than 64 µg/mL.
Work on CCN(Cc1ccccc1)c1ccc(/N=N/c2ccc(NC(=O)C[N+](CC)(CC)CC)cc2)cc1 [KIO-301] yielded a half-life at 30 µM [5] of 24 days.
